From ChEMBL document CHEMBL1127476, “3-substituted thieno[2,3-b][1,4]thiazine-6-sulfonamides. A novel class of topically active carbonic anhydrase inhibitors” (J Med Chem, 1994)
In brackets after ≈: the same amount, converted by molar mass.

Key:
[1] = The pKa value in 30% EtOH/H2O; format: physicochemical
Carbonic anhydrase 2 [2] = target: T1, Carbonic anhydrase 2 (Homo sapiens, UniProt P00918)
Description: Tested for ability to inhibit human erythrocyte carbonic-anhydrase-II- (HCA II) catalyzed carbon dioxide hydration

Carbonic anhydrase 2 [3] = target: T1, Carbonic anhydrase 2; remark: listed apart in the source
Description: Tested for ability to compete with dansylamide for binding to human erythrocyte carbonic-anhydrase-II (HCA-II)

Oryctolagus cuniculus [4] = species on record: Oryctolagus cuniculus
Description: Reduction of the elevated intraocular pressure (IOP) in alpha-chymotrypsin treated albino rabbit

Oryctolagus cuniculus [5] = species on record: Oryctolagus cuniculus; remark: listed apart in the source
Description: Change in intraocular pressure (IOP) was measured in the normotensive pigmented rabbit

Oryctolagus cuniculus [6] = species on record: Oryctolagus cuniculus; remark: listed apart in the source
Description: Change in intraocular pressure (IOP) was measured in the normotensive pigmented rabbit in presence of MK-927

physchem = conditions: pH 5.2 buffer, pH 5.2, Solubility
[7] = buffer, pH 5.2
Description: Solubility in pH 5.2 buffer

Row | Compound | pKa [1] | IC50 (Carbonic anhydrase 2 [2]) [nM] | Ki (Carbonic anhydrase 2 [3]) [nM] | solubility (physchem) [µg/mL] | solubility [7] [µg/mL] | Delta IOP (Oryctolagus cuniculus [4]) [mmHg] | Delta IOP (Oryctolagus cuniculus [5]) [mmHg] | Delta IOP (Oryctolagus cuniculus [6]) [mmHg]
1 | COCCN(CCOC)CCC1CNc2cc(S(N)(=O)=O)sc2S1(=O)=O (configuration not stated) | 6.4 | 2.14 | 0.97 | > 6700 |  | 4 | -4.1 | -5.1
2 | COCCOCCN(CCOC)C(=O)CC1C(=O)Nc2cc(S(N)(=O)=O)sc2S1(=O)=O (configuration not stated) |  | 2.18 | 3.6 |  |  |  |  | 
3 | NS(=O)(=O)c1cc2c(s1)SCC(=O)N2 |  | 12.8 | 24 |  |  |  |  | 
4 | COCCOCCN(CCOC)CCC1CNc2cc(S(N)(=O)=O)sc2S1(=O)=O (configuration not stated) | 6.55 | 1.45 | 4.14 | 11800 (≈ 25 mM) |  | 6 | -1.6 | -5.3
5 | CC(C)CNC(=O)CC1Sc2sc(S(N)(=O)=O)cc2NC1=O (configuration not stated) | 3.65 |  |  | 30 (≈ 0.0825 mM) |  |  |  | 
6 | NS(=O)(=O)c1cc2c(s1)S(=O)(=O)C1(CC1)CN2 | 8.29 | 2 | 10.9 | 520 (≈ 1.77 mM) |  |  |  | 
7 | NS(=O)(=O)c1cc2c(s1)SC(CCO)CN2 (configuration not stated) | 9.62 |  |  | 640 (≈ 2.28 mM) |  |  |  | 
8 | NS(=O)(=O)c1cc2c(s1)S(=O)(=O)C(CCN1CCOCC1)CN2 (configuration not stated) | 3.23 |  |  | 2100 (≈ 5.5 mM) |  | 5 | -2.8 | -4.4
9 | COCCOCCN(CCOC)CCC1C(=O)Nc2cc(S(N)(=O)=O)sc2S1(=O)=O (configuration not stated) |  | 5.15 | 4.14 |  |  |  |  | 

Second part, led by results:

Row | pKa [1] | IC50 (Carbonic anhydrase 2 [2]) [nM] | Ki (Carbonic anhydrase 2 [3]) [nM] | solubility (physchem) [µg/mL] | solubility [7] [µg/mL] | Compound | Delta IOP (Oryctolagus cuniculus [4]) [mmHg] | Delta IOP (Oryctolagus cuniculus [5]) [mmHg] | Delta IOP (Oryctolagus cuniculus [6]) [mmHg]
10 | 8.45 | 1.9 | 1.19 | 4500 (≈ 14.4 mM) |  | NS(=O)(=O)c1cc2c(s1)S(=O)(=O)C(CCO)CN2 (configuration not stated) |  |  | 
11 | 8.8 | 2.46 | 3.36 | 190 (≈ 0.708 mM) |  | NS(=O)(=O)c1cc2c(s1)S(=O)(=O)CCN2 |  |  | 
12 | 4.3 |  | 47.5 | 2400 (≈ 7.78 mM) |  | NS(=O)(=O)c1cc2c(s1)SC(CC(=O)O)C(=O)N2 (configuration not stated) |  |  | 
13 | 7.43 | 3.7 | 2.9 | 600 (≈ 2.13 mM) |  | NS(=O)(=O)c1cc2c(s1)S(=O)(=O)CC(=O)N2 |  |  | 
14 | 8.18 | 2.9 | 4.05 | 24000 (≈ 65.3 mM) |  | CC(C)CNCCC1CNc2cc(S(N)(=O)=O)sc2S1(=O)=O (configuration not stated) | -4.5 | -2.1 | -6.2
15 |  |  |  |  | > 16000 | CC(C)CN[C@H]1CCS(=O)(=O)c2sc(S(N)(=O)=O)cc21 (stereo in doubt; form 1) [SEZOLAMIDE] |  |  | 
16 |  |  |  |  | 33000 (≈ 97.5 mM) | CC(C)CN[C@H]1CCS(=O)(=O)c2sc(S(N)(=O)=O)cc21 (stereo in doubt; form 2) [SEZOLAMIDE] |  |  | 
